In brackets after ≈: the same amount, converted by molar mass.
Conditions: buffer; pH 7.4; 200.0 µM

Compound	solubility kinetic [µg/mL]
O=C(NCCOc1ccccc1)C1=CC=CN2CCS(=O)(=O)N=C12	> 52.1
Cc1c(OCC(N)=O)ccc2c(-c3ccccc3)cc(=O)oc12	0.9 (≈ 2.91 µM)
CC(C)(C)c1ccc(OCC(O)CN2CCc3ccccc3C2)cc1.Cl (stereo unspecified)	11.7
Cc1cc(C(F)F)nn1CC(=O)NC1CCCC1	> 38.6
O=C(O)C(=O)O.c1ccc2c(CCNC3CCCCC3)c[nH]c2c1	> 49.9
CC(=O)c1ccc(OC(C)c2nc3ccccc3s2)cc1 (stereo unspecified)	13.1 (≈ 44.1 µM)
CC1CCCCN1CC(O)COCc1ccc(Cl)cc1 (stereo unspecified)	29.1 (≈ 97.7 µM)
COc1ccc(-c2nc(S(=O)(=O)c3ccccc3)c(NCCCN3CCOCC3)o2)cc1	67.8 (≈ 148 µM)
Fc1ccccc1NC(=S)NCCc1ccc(Cl)cc1	39 (≈ 126 µM)
CCCCNC(=O)C1c2ccccc2Oc2ccccc21	< 0.6
CC(C)CNc1nc(N)c([N+](=O)[O-])c(NCc2ccccc2)n1	< 0.1
CCOc1ccc(C(=O)CC(C(=O)O)N2CCCCC2)cc1 (stereo unspecified)	> 45.8
O=c1oc2ccccc2n1Cc1cccc(Cl)c1	0.8 (≈ 3.08 µM)
Cc1ccc(S(=O)(=O)NCCCN2CCCC2)cc1	> 42.4
COc1ccc(OC)c(NC(=O)CCNC(=O)c2ccco2)c1	44.7 (≈ 140 µM)
Cc1cc(NC(=O)c2ccc(NC(=O)C3CC3)cc2)no1	8.8 (≈ 30.8 µM)
N#CCc1nc(C(c2ccccc2)c2ccccc2)no1	33.5 (≈ 122 µM)
O=C(Nc1ccccc1)C1C2CCCCC21 (stereo unspecified)	1.9 (≈ 8.83 µM)
Cc1ccccc1CSCC(=O)Nc1ccccc1F	27.9 (≈ 96.4 µM)
CN(C)c1cc(-c2ccc(Cl)cc2)oc(=O)c1Cl	1.7 (≈ 5.98 µM)
Cc1ccc(S(=O)(=O)N2CCOCC2)cc1NC(=O)COC(=O)c1ccc(Br)cc1	5.3 (≈ 10.7 µM)

Compound	solubility kinetic [µg/mL]
Cc1nc2nc(SCc3nc4ccccc4[nH]3)[nH]c2cc1Br	1.1 (≈ 2.94 µM)
Cc1nc2sccn2c(=O)c1CCN1CCC(=C(c2ccc(F)cc2)c2ccc(F)cc2)CC1	12.2 (≈ 25.5 µM)
O=S(=O)(NC(=S)c1ccccc1)c1ccc(Cl)cc1	> 46.8
Cc1ccccc1OCC(=O)Nc1ccccc1-c1ccccc1	< 0.7
O=C(N/N=C/c1cccnc1)c1cccc(Cl)c1	> 39
CC1CCCC(C)N1/N=C/c1ccc(C#N)cc1 (stereo unspecified)	> 36.2
Cc1cccc2c3nc4ccccc4nc3n(C)c12	< 0.2
Cc1ccc(SCC(=O)OCC(=O)Nc2ccc3[nH]c(=O)[nH]c3c2)cc1C	5.8 (≈ 15 µM)
CC(OC(=O)c1cccnc1)C(=O)Nc1ccc2c(c1)OCO2 (stereo unspecified)	44 (≈ 140 µM)
CC1CN(C(=O)Cn2c(=O)oc3ccccc32)CC(C)O1 (stereo unspecified)	43.1 (≈ 148 µM)
COc1ccc(/C=C/C(=O)NCCCN2CCCCCC2)cc1	> 47.5
CC(C)(C)NC(=O)COC(=O)CCC(=O)c1cccs1	> 44.6
CN(C)/C(=N\O)c1c(Cl)cccc1Cl	> 35
O=C(Nc1nccs1)c1cncc(Br)c1	20.4 (≈ 71.8 µM)
CNC(=S)Nc1ccc([N+](=O)[O-])cc1	> 31.7
COc1cccc2[nH]c3ccccc3c(=O)c12	> 33.8
Cc1ccc(Nc2nc(C)c3c(n2)CC(C)CC3=O)c(C)c1 (stereo unspecified)	1.7 (≈ 5.76 µM)
Cn1c(C(=O)N2CCC(C(N)=O)CC2)cc2cc(Cl)ccc21	1.2 (≈ 3.75 µM)
CN1CCN(NC(=O)CC(C)(C)C)CC1	> 32
Cc1cccc(NC(=O)COC(=O)CN2CCCCCC2=O)c1C	> 49.9
COc1ccc(CCNCc2sccc2C)cc1OC.Cl	36

Compound	solubility kinetic [µg/mL]
O=C(Nc1nc2c(s1)CN(Cc1ccccc1)CC2)C1CCC1	40 (≈ 122 µM)
Cc1ccc(N2C(=O)CN(Cc3ccccc3)C2=S)cc1C	0.3 (≈ 0.966 µM)
CSc1ccccc1C(=O)C1CCCN(Cc2ccncc2)C1 (stereo unspecified)	41.4 (≈ 127 µM)
O=C(NCC1CCCCC1)c1ccc(Cl)nc1	> 37.9
O=C(Nc1cc2c(cc1Br)OCCO2)c1ccc(=O)[nH]c1	> 52.7
O=C(O)CN1c2cccc3cccc(c23)S1(=O)=O	38.2 (≈ 145 µM)
CCOC(=O)/C(C#N)=C1\CC2CCC1(C)C2(C)C (stereo unspecified)	1.7 (≈ 6.87 µM)
Nn1c(SCC(=O)NC2CCCc3ccccc32)nnc1C1CC1 (stereo unspecified)	> 51.5
Cc1ccc(NC(=O)c2ccc(OCc3c(C)noc3C)cc2)cc1	< 0.4
CC1(c2ccc3ccccc3c2)NC(=O)N(CC(N)=O)C1=O (stereo unspecified)	> 44.6
CCOc1ccc(NC(=O)c2nc(SCC)ncc2Cl)cc1	< 0.2
Cc1cc(C)cc(NS(=O)(=O)c2ccc(NC(=O)c3ccccc3C(=O)O)cc2)c1	54.2 (≈ 128 µM)
CC(C)CN(C(=O)C1CCCC1)C1CCS(=O)(=O)C1 (stereo unspecified)	> 43.1
COP(=O)(OC)C(NC(C)=O)C(Cl)(Cl)Cl (stereo unspecified)	> 44.8
O=C(O)C1C2C=CC(O2)C1C(=O)Nc1cccc(C(F)(F)F)c1 (stereo unspecified)	> 49.1
CC(C)(CN1CCCC1)NS(=O)(=O)c1ccc(Cl)cc1	> 47.5
COc1ccccc1/C=C1/C(=O)ON=C1C	31.3 (≈ 144 µM)
NC(=O)CC(CC(=O)OCc1ccccc1)c1ccccc1 (stereo unspecified)	38 (≈ 128 µM)
CCC1CCC(N2CCN(c3ccc([N+](=O)[O-])cc3)CC2)CC1 (stereo unspecified)	8.9 (≈ 28 µM)
